Laboratory results reported in USRE37421E, “Rapamycin derivatives” (SmithKline Beecham Corporation, priority 1999, dated 2001).

System: Spleen cells from BDF1 female mice
Assay: Mitogenesis Assay for Immunosuppressive Activity (concanavalin A-stimulated spleen cells, 3H-thymidine uptake)
Assay type: cell-based
Conditions: BDF1 mouse spleen cells, Concanavalin A 5 μg/ml, 72 hours
Experimental: Spleen cells from BDF1 female mice were established in RPMI with 10% fetal calf serum at 5×10^6 /mL. […] Concanavalin A (5μ g/ml)was added as the mitogenic stimulus, and the final volume in the microtiter wells was adjusted to 200μ L with RPMI. Cell cultures were incubated for 72 hours at 37° C. in a 5% CO2 atmosphere and pulsed with 0.5μ Ci ^3 H-thymidine (specific activity […]) for the last 18 hours of the 72 hour culture. The cells were harvested on an automated multiple sample harvester and cell-associated radioactivity counted in a Beckman liquid scintillation counter. The results are expressed as the mean values derived from quadruplicate measurements. Cell viability was determined by trypan blue exclusion after 72 hours of incubation. Compounds to be tested were added to the microtiter plates at the appropriate dilutions prior to the addition of cells.

CO[C@H]1C[C@@H]2CC[C@@H](C)[C@@](O)(O2)C(O)C(=O)N2CCCC[C@H]2C(=O)O[C@H]([C@H](C)C[C@@H]2CC[C@@H](O)[C@H](OC)C2)CC(=O)[C@H](C)/C=C(\C)[C@@H](O)[C@@H](OC)C(O)[C@H](C)C[C@H](C)/C=C/C=C/C=C/1C (single isomer, unassigned) [Ex. 2, isomer 2, 14,30-Bisdihydrorapamycin] and CO[C@H]1C[C@@H]2CC[C@@H](C)[C@@](O)(O2)C(=O)C(=O)N2CCCC[C@H]2C(=O)O[C@H]([C@H](C)C[C@@H]2CC[C@@H](O)[C@H](OC)C2)CC(=O)[C@H](C)/C=C(\C)[C@@H](O)[C@@H](OC)C(O)[C@H](C)C[C@H](C)/C=C/C=C/C=C/1C (single isomer, unassigned) [Ex. 4, isomer 1, 30-Dihydro-rapamycins] cannot be ordered by IC50: 1 to 10 nM for the first, 2 nM for the second.

CO[C@H]1C[C@@H]2CC[C@@H](C)[C@@](O)(O2)C(=O)C(=O)N2CCCC[C@H]2C(=O)O[C@H]([C@H](C)C[C@@H]2CC[C@@H](O)[C@H](OC)C2)CC(=O)[C@H](C)/C=C(\C)[C@@H](O)[C@@H](OC)C(O)[C@H](C)C[C@H](C)/C=C/C=C/C=C/1C (single isomer, unassigned) [Ex. 4, isomer 2, 30-Dihydro-rapamycins] was tested, and the IC50 was 0.1 to 1 nM.

Same assay, conditions: Mus musculus, Concanavalin A 5 μg/ml, 72 hours

Compared with CO[C@H]1C[C@@H]2CC[C@@H](C)[C@@](O)(O2)C(O)C(=O)N2CCCC[C@H]2C(=O)O[C@H]([C@H](C)C[C@@H]2CC[C@@H](O)[C@H](OC)C2)CC(=O)[C@H](C)/C=C(\C)[C@@H](O)[C@@H](OC)C(O)[C@H](C)C[C@H](C)/C=C/C=C/C=C/1C (single isomer, unassigned) [Ex. 2, isomer 1, 14,30-Bisdihydrorapamycin], CO[C@H]1C[C@@H]2CC[C@@H](C)[C@@](OC)(O2)C(O)C(=O)N2CCCC[C@H]2C(=O)O[C@H]([C@H](C)C[C@@H]2CC[C@@H](O)[C@H](OC)C2)CC(=O)[C@H](C)/C=C(\C)[C@@H](O)[C@@H](OC)C(O)[C@H](C)C[C@H](C)/C=C/C=C/C=C/1C (single isomer, unassigned) [Ex. 3, major isomer, 14,30-Bisdihydro-13-O-methylrapamycins] is higher in IC50: 1 to 10 nM for the first, 100 to 1000 nM for the second.

Compared with CO[C@H]1C[C@@H]2CC[C@@H](C)[C@@](O)(O2)C(O)C(=O)N2CCCC[C@H]2C(=O)O[C@H]([C@H](C)C[C@@H]2CC[C@@H](O)[C@H](OC)C2)CC(=O)[C@H](C)/C=C(\C)[C@@H](O)[C@@H](OC)C(=O)[C@H](C)C[C@H](C)/C=C/C=C/C=C/1C (single isomer, unassigned; isomer 14) [Ex. 1, major isomer, 14-Dihydrorapamycin], CO[C@H]1[C@@H](O)[C@H](C)C[C@H](C)/C=C/C=C/C=C(\C)[C@@H](OC)C[C@@H]2CC[C@@H](C)[C@](O)(CC(=O)N3CCCC[C@H]3C(=O)O[C@H]([C@H](C)C[C@@H]3CC[C@@H](O)[C@H](OC)C3)CC(=O)[C@H](C)/C=C(\C)[C@H]1O)O2 [Ex. 6, 14-Desoxo-30 (S) -dihydro-rapamycin] is higher in IC50: 10 nM for the first, > 1000 nM for the second. The first is the more potent here.

CO[C@H]1C[C@@H]2CC[C@@H](C)[C@@](O)(O2)C(=O)C(=O)N2CCCC[C@H]2C(=O)O[C@H]([C@H](C)C[C@@H]2CC[C@@H](O)[C@H](OC)C2)CC(=O)[C@H](C)/C=C(\C)[C@H]2OC(C)(C)OC([C@H](C)C[C@H](C)/C=C/C=C/C=C/1C)[C@@H]2OC [Ex. 5, 30-Dihydro-Rapamycin-28, 30-Acetonide] showed an IC50 of 100 to 1000 nM.
